Laboratory results published in ChEMBL document CHEMBL1201862, “PubChem BioAssay data set” (2004).
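Values below derive from 48-hour exposures of cells grown in 96-well plates, with endpoints linearly interpolated between the two concentrations bracketing the appropriate inhibition level. Here, GI50 denotes the concentration required for 50% inhibition of growth.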 The source made the active and inactive calls. Rule as the data show it: active = GI50 up to about 1.1 µM and inactive = higher.

Tests used:
Assay in all cases: NCI anticancer screen, dose series, 48 h
EKVX = test system: EKVX
LOX IMVI = test system: LOX IMVI
SF-268 = test system: SF-268
SF-295 = test system: SF-295
Hs-578T = test system: Hs-578T
HCC 2998 = test system: HCC 2998
HL-60 = test system: HL-60
SW-620 = test system: SW-620
A549 = test system: A549
SK-MEL-5 = test system: SK-MEL-5
MDA-MB-231 = test system: MDA-MB-231
UACC-257 = test system: UACC-257
KM12 = test system: KM12
PC-3 = test system: PC-3
SK-OV-3 = test system: SK-OV-3
NCI/ADR-RES = test system: NCI/ADR-RES
NCI-H226 = test system: NCI-H226
SNB-75 = test system: SNB-75
OVCAR-4 = test system: OVCAR-4
CCRF-CEM = test system: CCRF-CEM

| Compound | GI50 (EKVX) | GI50 (LOX IMVI) | GI50 (SF-268) | GI50 (SF-295) | GI50 (Hs-578T) | GI50 (HCC 2998) | GI50 (HL-60) | GI50 (SW-620) | GI50 (A549) | GI50 (SK-MEL-5) | GI50 (MDA-MB-231) | GI50 (UACC-257) | GI50 (KM12) | GI50 (PC-3) | GI50 (SK-OV-3) | GI50 (NCI/ADR-RES) | GI50 (NCI-H226) | GI50 (SNB-75) | GI50 (OVCAR-4) | GI50 (CCRF-CEM) |
| --- | --- | --- | --- | --- | --- | --- | --- | --- | --- | --- | --- | --- | --- | --- | --- | --- | --- | --- | --- | --- |
| CC1(C)[C@@H]2CC[C@]1(C)[C@H](OC(=O)/C=C/c1ccccc1)C2 | 19.9 µM (inactive) | 21.3 µM (inactive) | 17.3 µM (inactive) | 18 µM (inactive) | 19.5 µM (inactive) | 17 µM (inactive) | 18.4 µM (inactive) | 15.5 µM (inactive) | 30.8 µM (inactive) | 16.7 µM (inactive) | 19.3 µM (inactive) | 23.8 µM (inactive) | 20.8 µM (inactive) | 23.4 µM (inactive) | 34.9 µM (inactive) | 18.9 µM (inactive) | 20.8 µM (inactive) | 16.2 µM (inactive) | 22 µM (inactive) | 20.4 µM (inactive) |
| N=C(N)N/N=C/c1c(Cl)nc2sccn12 | 42.9 µM (inactive) | 18.9 µM (inactive) | 24.2 µM (inactive) | 21.4 µM (inactive) | 18.2 µM (inactive) | 16.9 µM (inactive) | 17.4 µM (inactive) | 18 µM (inactive) | 30.5 µM (inactive) | 15.8 µM (inactive) | 33.6 µM (inactive) | 23.4 µM (inactive) | 16.4 µM (inactive) | 30.4 µM (inactive) | 60.1 µM (inactive) | 55.2 µM (inactive) | 25.4 µM (inactive) | 38.1 µM (inactive) | 19.2 µM (inactive) | 21.1 µM (inactive) |
| COc1ccc(C(O)/C(=N/N)c2nc3ccc(Cl)cc3nc2O)cc1 (stereo not given) | > 100 µM (inactive) | > 100 µM (inactive) | > 100 µM (inactive) | > 100 µM (inactive) | > 100 µM (inactive) | > 100 µM (inactive) | > 100 µM (inactive) | > 100 µM (inactive) | > 100 µM (inactive) | > 100 µM (inactive) | > 100 µM (inactive) | > 100 µM (inactive) | > 100 µM (inactive) | > 100 µM (inactive) | > 100 µM (inactive) | > 100 µM (inactive) | > 100 µM (inactive) | > 100 µM (inactive) | > 100 µM (inactive) | > 100 µM (inactive) |
| C#C[C@]1(O)CC[C@H]2[C@@H]3CCC4=C/C(=N/NC(=O)c5cccc6c(=O)c7ccccc7[nH]c56)CCC4[C@H]3CC[C@@]21C (stereo not given in full) | 77.8 µM (inactive) | 58.1 µM (inactive) | > 100 µM (inactive) | 43.4 µM (inactive) | 32.1 µM (inactive) | 47.9 µM (inactive) | 26.4 µM (inactive) | 49.8 µM (inactive) | 60.3 µM (inactive) | 24.4 µM (inactive) | > 100 µM (inactive) | 35.5 µM (inactive) | 25.5 µM (inactive) | 34.7 µM (inactive) | > 100 µM (inactive) | 55.5 µM (inactive) | 73.8 µM (inactive) | 15 µM (inactive) | 45.8 µM (inactive) | 40.3 µM (inactive) |
| N#CCCN(CCCN(CCCN(C(=O)Nc1ccccc1)c1ccccc1)C(=O)Nc1ccccc1)C(=O)Nc1ccccc1 | > 8.75 µM (inactive) | > 100 µM (inactive) | > 8.75 µM (inactive) | > 8.75 µM (inactive) | 73.5 µM (inactive) | > 100 µM (inactive) | > 8.75 µM (inactive) | > 8.75 µM (inactive) | > 8.75 µM (inactive) | > 8.75 µM (inactive) | > 8.75 µM (inactive) | > 8.75 µM (inactive) | > 8.75 µM (inactive) | > 8.75 µM (inactive) | > 8.75 µM (inactive) | > 8.75 µM (inactive) | 31.4 µM (inactive) | > 8.75 µM (inactive) | > 100 µM (inactive) | 6.14 µM (inactive) |
| O=[N+]([O-])c1cc(C(F)(F)F)ccc1S(=O)(=O)N[C@@H]1CCCC[C@H]1NS(=O)(=O)c1ccc(C(F)(F)F)cc1[N+](=O)[O-] | 6.5 µM (inactive) | 1.56 µM (inactive) | 2.49 µM (inactive) | 2.86 µM (inactive) | 2.48 µM (inactive) | 4.28 µM (inactive) | 1.39 µM (inactive) | 3.78 µM (inactive) | 4.16 µM (inactive) | 3.58 µM (inactive) | 2.77 µM (inactive) | 8.07 µM (inactive) | 3.08 µM (inactive) | 3.11 µM (inactive) | 13.6 µM (inactive) | 2.51 µM (inactive) | 7.52 µM (inactive) | 1.83 µM (inactive) | 2.61 µM (inactive) | 2.72 µM (inactive) |
| COc1cc(C=O)cc(/C=N/c2ccccn2)c1O | 23.4 µM (inactive) | 14.1 µM (inactive) | 3.37 µM (inactive) | 5.47 µM (inactive) | 4.63 µM (inactive) | 46.1 µM (inactive) | 33.4 µM (inactive) | 31.6 µM (inactive) | 32 µM (inactive) | 2.39 µM (inactive) | 9.02 µM (inactive) | 8.59 µM (inactive) | 24.5 µM (inactive) | 3.64 µM (inactive) | 4.98 µM (inactive) | 10.8 µM (inactive) | 4.84 µM (inactive) | 3.78 µM (inactive) | > 100 µM (inactive) | 4.67 µM (inactive) |
| CCOC(=O)/C=C(\C(=O)OCC)n1ccc(N)nc1=O | 62.8 µM (inactive) | 88.7 µM (inactive) | > 99.8 µM (inactive) | > 100 µM (inactive) | > 100 µM (inactive) | > 100 µM (inactive) | 26.6 µM (inactive) | 56.4 µM (inactive) | > 100 µM (inactive) | > 100 µM (inactive) | > 100 µM (inactive) | > 100 µM (inactive) | > 100 µM (inactive) | > 100 µM (inactive) | > 100 µM (inactive) | > 100 µM (inactive) | > 100 µM (inactive) | > 100 µM (inactive) | 72.9 µM (inactive) | 22.4 µM (inactive) |
| COC12COC(=O)C1C(c1ccc3c(c1)OCO3)c1cc3c(cc1O2)OCO3 (stereo not given) | 37.1 µM (inactive) | 12.8 µM (inactive) | 27.9 µM (inactive) | 6.95 µM (inactive) | 19.5 µM (inactive) | 15.6 µM (inactive) | 5.28 µM (inactive) | 8.49 µM (inactive) | 16.7 µM (inactive) | 11.2 µM (inactive) | 25.4 µM (inactive) | 27.9 µM (inactive) | 7.91 µM (inactive) | 12.6 µM (inactive) | 14.2 µM (inactive) | 5.3 µM (inactive) | 34.3 µM (inactive) | 7.71 µM (inactive) | 36.5 µM (inactive) | 8.57 µM (inactive) |
| Cn1c(-c2ccc[se]2)ccc1-c1ccc(CO)[se]1 | 32.7 µM (inactive) | 21.8 µM (inactive) | 44 µM (inactive) | 31.3 µM (inactive) | 33 µM (inactive) | 0.792 µM (active) | 10 µM (inactive) | 0.133 µM (active) | 52.6 µM (inactive) | 24.9 µM (inactive) | 32.6 µM (inactive) | 0.0461 µM (active) | 32.1 µM (inactive) | 42.5 µM (inactive) | 17.1 µM (inactive) | 9.48 µM (inactive) | 0.302 µM (active) | > 49.4 µM (inactive) | 0.0392 µM (active) | 17.1 µM (inactive) |
| O=C(/C=C/c1ccc(OCc2cccc(Cl)c2)cc1)NO | 23.9 µM (inactive) | 6.28 µM (inactive) | 24.3 µM (inactive) | 17.9 µM (inactive) | 35 µM (inactive) | 14.2 µM (inactive) | 11.1 µM (inactive) | 10.1 µM (inactive) | 18.9 µM (inactive) | 16.4 µM (inactive) | 19.7 µM (inactive) | 38 µM (inactive) | 16.5 µM (inactive) | 12.6 µM (inactive) | 17.9 µM (inactive) | 5.78 µM (inactive) | 14 µM (inactive) | 20.4 µM (inactive) | 13.5 µM (inactive) | 2.65 µM (inactive) |
| Cc1cccc(/C=N\NC(=S)N2CCCCC2)n1 | 0.673 µM (active) | 0.0681 µM (active) | 0.0451 µM (active) | 0.211 µM (active) | 26.5 µM (inactive) | 9.77 µM (inactive) | 0.0112 µM (active) | 0.334 µM (active) | 0.158 µM (active) | 0.0229 µM (active) | < 0.01 µM (active) | < 0.01 µM (active) | 0.13 µM (active) | 0.0435 µM (active) | 0.685 µM (active) | 0.0205 µM (active) | 0.184 µM (active) | 0.611 µM (active) | < 0.01 µM (active) | < 0.01 µM (active) |
| CC(C)(C)[Si](C)(C)OCC1OC(n2cnc3c(NC(=O)c4ccccc4)ncnc32)CC1O (stereo not given) | 40.3 µM (inactive) | 18.7 µM (inactive) | 64.4 µM (inactive) | 24.4 µM (inactive) | 19.2 µM (inactive) | 27.7 µM (inactive) | 28 µM (inactive) | 40.9 µM (inactive) | 42.7 µM (inactive) | 17.5 µM (inactive) | 22.1 µM (inactive) | 39.5 µM (inactive) | 34.7 µM (inactive) | 37.5 µM (inactive) | 23.2 µM (inactive) | 38.9 µM (inactive) | 24.5 µM (inactive) | 26.7 µM (inactive) | 24 µM (inactive) | 22.4 µM (inactive) |
| CC(=O)c1cc(CC2Cc3cc4c(cc3C2=O)CCC4)cc2c1CCC2 (stereo not given) | 37.8 µM (inactive) | 24 µM (inactive) | 83.9 µM (inactive) | 20.4 µM (inactive) | 35.5 µM (inactive) | 46 µM (inactive) | 8.65 µM (inactive) | 49.5 µM (inactive) | 29.8 µM (inactive) | 14 µM (inactive) | 29.7 µM (inactive) | 29.9 µM (inactive) | 37.2 µM (inactive) | 10.1 µM (inactive) | 62.2 µM (inactive) | 26.2 µM (inactive) | 44.9 µM (inactive) | 33.3 µM (inactive) | 54.8 µM (inactive) | 24 µM (inactive) |
